According to patent publication US8614206B2 (Genentech, Inc., priority 2011, dated 2013):

What follows are compounds tested against PIM1 (Homo sapiens (Human), UniProt P11309) (assay: Pim kinase inhibition, PIM1 LC3K (Example 901)).
Format: biochemical
Text: Determination of the Pim kinase activity of a Formula I compound is possible by a number of direct and indirect detection methods.

Chain of PIM1 (P11309 whole entry): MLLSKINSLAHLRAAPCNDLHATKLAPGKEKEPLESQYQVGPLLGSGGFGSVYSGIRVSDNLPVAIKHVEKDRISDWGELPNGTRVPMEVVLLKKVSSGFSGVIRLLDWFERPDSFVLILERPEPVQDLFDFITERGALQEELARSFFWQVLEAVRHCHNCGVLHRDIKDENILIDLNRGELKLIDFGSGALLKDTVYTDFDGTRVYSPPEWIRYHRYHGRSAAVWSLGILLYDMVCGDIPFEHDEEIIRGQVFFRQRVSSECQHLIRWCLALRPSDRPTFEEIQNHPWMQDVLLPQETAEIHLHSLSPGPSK

| Ki | SMILES |
| --- | --- |
| 0.021 nM | Cn1ncc(NC(=O)c2nc(-c3ccccc3F)ccc2N)c1N1CCC(N)CC(F)(F)C1 (racemic) [Example 292, 3-amino-N-(5-(5-amino-3,3-difluoroazepan-1-yl)-1-methyl-1H-pyrazol-4-yl)-6-(2-fluorophenyl)picolinamide] |
| 0.023 nM | Cn1ncc(NC(=O)c2nc(-c3ccccc3F)cnc2N)c1N1CCC(N)CC(F)(F)C1 (racemic) [Example 293, 3-amino-N-(5-(5-amino-3,3-difluoroazepan-1-yl)-1-methyl-1H-pyrazol-4-yl)-6-(2-fluorophenyl)pyrazine-2-carboxamide] |
| 0.188 nM | Cn1ncc(NC(=O)c2nc(-c3ccccc3F)sc2N)c1N1CCNCC2(CCO2)C1 (racemic) [Example 477, 5-amino-2-(2-fluorophenyl)-N-[1-methyl-5-(1-oxa-6,9-diazaspiro[3.6]decan-6-yl)pyrazol-4-yl]thiazole-4-carboxamide] |
| 0.149 nM | Cn1ncc(NC(=O)c2nc(-c3ccccc3F)ccc2N)c1N1CCC(N)C(F)CC1 (single isomer, unassigned) [Example 246, 3-amino-N-(5-(4-amino-5-fluoroazepan-1-yl)-1-methyl-1H-pyrazol-4-yl)-6-(2-fluorophenyl)picolinamide] |
| 0.007 nM | Cn1ncc(NC(=O)c2nc(-c3ccccc3F)cnc2N)c1N1CC[C@@H](N)CC(F)(F)C1 (single isomer, unassigned) [Example 248] |
| 0.373 nM | CCn1ncc(NC(=O)c2nc(-c3ccccc3F)sc2N)c1N1CCC(N)C(F)CC1 (single isomer, unassigned) [Example 373, 5-amino-N-[5-(4-amino-5-fluoro-azepan-1-yl)-1-ethyl-pyrazol-4-yl]-2-(2-fluorophenyl)thiazole-4-carboxamide] |
| 0.346 nM | CCn1ncc(NC(=O)c2nc(-c3ccccc3F)sc2N)c1N1CCC(N)C(F)CC1 (single isomer, unassigned) [Example 374, 5-amino-N-[5-(4-amino-5-fluoro-azepan-1-yl)-1-ethyl-pyrazol-4-yl]-2-(2-fluorophenyl)thiazole-4-carboxamide] |
| 0.496 nM | Cn1ncc(NC(=O)c2nc(-c3ccccc3F)sc2N)c1N1CCNC[C@]2(CCO2)C1 (single isomer, unassigned) [Example 481] |
| 0.268 nM | Cn1ncc(NC(=O)c2nc(-c3c(F)cccc3F)sc2N)c1N1CCC(N)C2(CCO2)CC1 (single isomer, unassigned) [Example 497, 5-amino-N-[5-(5-amino-1-oxa-8-azaspiro[3.6]decan-8-yl)-1-methyl-pyrazol-4-yl]-2-(2,6-difluorophenyl)thiazole-4-carboxamide] |
| 0.038 nM | Cn1ncc(NC(=O)c2nc(-c3c(F)cccc3F)sc2N)c1N1CCC(N)C2(CCO2)CC1 (single isomer, unassigned) [Example 498, 5-amino-N-[5-(5-amino-1-oxa-8-azaspiro[3.6]decan-8-yl)-1-methyl-pyrazol-4-yl]-2-(2,6-difluorophenyl)thiazole-4-carboxamide] |
| 0.025 nM | Cn1ncc(NC(=O)c2nc(-c3c(F)cccc3F)sc2N)c1N1CCC(N)C2(CCO2)CC1 (single isomer, unassigned) [Example 501, 5-amino-N-[5-(5-amino-1-oxa-8-azaspiro[3.6]decan-8-yl)-1-methyl-pyrazol-4-yl]-2-(2,6-difluorophenyl)thiazole-4-carboxamide] |
| 0.02 nM | Cn1ncc(NC(=O)c2nc(-c3ccccc3F)ccc2N)c1N1CC[C@H](N)CC(F)(F)C1 (stereo in doubt) [Example 249, 3-amino-N-(5-(5-amino-3,3-difluoroazepan-1-yl)-1-methyl-1H-pyrazol-4-yl)-6-(2-fluorophenyl)picolinamide] |
| 0.019 nM | Cc1ccc(F)c(-c2nc(C(=O)Nc3cnn(C)c3N3CCNCC(F)(F)C3)c(N)s2)c1 [Example 105, 5-Amino-N-(5-(6,6-difluoro-1,4-diazepan-1-yl)-1-methyl-1H-pyrazol-4-yl)-2-(2-fluoro-5-methylphenyl)thiazole-4-carboxamide] |
| 0.01 nM | Cn1ncc(NC(=O)c2nc(-c3ccccc3F)cnc2N)c1N1CC[C@H](N)CC(F)(F)C1 [Example 247, (S)-3-amino-N-(5-(5-amino-3,3-difluoroazepan-1-yl)-1-methyl-1H-pyrazol-4-yl)-6-(2-fluorophenyl)pyrazine-2-carboxamide] |
| 0.03 nM | Cn1ncc(NC(=O)c2nc(-c3ccccc3F)ccc2N)c1N1CC[C@@H](N)CC(F)(F)C1 [Example 250, (R)-3-amino-N-(5-(5-amino-3,3-difluoroazepan-1-yl)-1-methyl-1H-pyrazol-4-yl)-6-(2-fluorophenyl)picolinamide] |
| > 667 nM | Nc1sc(-c2c(F)cccc2F)nc1C(=O)Nc1cnn(CC2COC2)c1N1CCNCC1 [Example 251, 5-Amino-2-(2,6-difluoro-phenyl)-thiazole-4-carboxylic acid (1-oxetan-3-ylmethyl-5-piperazin-1-yl-1H-pyrazol-4-yl)-amide] |
| 0.009 nM | Cn1ncc(NC(=O)c2nc(-c3c(F)cccc3F)sc2N)c1N1CCC(N)CC(C)(F)C1 (centres unmarked) [Example 256, 5-Amino-2-(2,6-difluoro-phenyl)-thiazole-4-carboxylic acid [5-(5-amino-3-fluoro-3-methyl-azepan-1-yl)-1-methyl-1H-pyrazol-4-yl]-amide] |

Second part, the compound before the results:

| SMILES | Ki |
| --- | --- |
| Cn1ncc(NC(=O)c2nc(-c3ccccc3F)cnc2N)c1N1CCC(N)C(F)CC1 (single isomer, unassigned) [Example 243, 3-amino-N-(5-(4-amino-5-fluoroazepan-1-yl)-1-methyl-1H-pyrazol-4-yl)-6-(2-fluorophenyl)pyrazine-2-carboxamide] | 0.123 nM |
| Cn1ncc(NC(=O)c2nc(-c3ccccc3F)cnc2N)c1N1CCC(N)C(F)CC1 (single isomer, unassigned) [Example 244, 3-amino-N-(5-(4-amino-5-fluoroazepan-1-yl)-1-methyl-1H-pyrazol-4-yl)-6-(2-fluorophenyl)pyrazine-2-carboxamide] | 0.141 nM |
| Cn1ncc(NC(=O)c2nc(-c3ccccc3F)ccc2N)c1N1CCC(N)C(F)CC1 (single isomer, unassigned) [Example 245, 3-amino-N-(5-(4-amino-5-fluoroazepan-1-yl)-1-methyl-1H-pyrazol-4-yl)-6-(2-fluorophenyl)picolinamide] | 0.173 nM |
| Nc1sc(-c2c(F)cccc2F)nc1C(=O)Nc1cnn(CC(F)F)c1N1CC[C@H](N)CC(F)(F)C1 (single isomer, unassigned) [Example 280] | 0.01 nM |
| Nc1sc(-c2c(F)cccc2F)nc1C(=O)Nc1cnn(C2CC2)c1N1CCC(N)C(F)CC1 (single isomer, unassigned) [Example 332, 5-amino-N-[5-(4-amino-5-fluoro-azepan-1-yl)-1-cyclopropyl-pyrazol-4-yl]-2-(2,6-difluorophenyl)thiazole-4-carboxamide] | 0.148 nM |
| CCn1ncc(NC(=O)c2nc(-c3c(F)cccc3F)sc2N)c1N1CCC(N)C(F)CC1 (single isomer, unassigned) [Example 369, 5-amino-N-[5-(4-amino-5-fluoro-azepan-1-yl)-1-ethyl-pyrazol-4-yl]-2-(2,6-difluorophenyl)thiazole-4-carboxamide] | 0.178 nM |
| CCn1ncc(NC(=O)c2nc(-c3c(F)cccc3F)sc2N)c1N1CCC(N)C(OC)CC1 (single isomer, unassigned) [Example 389, 5-amino-N-[5-(4-amino-5-methoxy-azepan-1-yl)-1-ethyl-pyrazol-4-yl]-2-(2,6-difluorophenyl)thiazole-4-carboxamide] | 0.624 nM |
| COC1CCN(c2c(NC(=O)c3nc(-c4c(F)cccc4F)sc3N)cnn2C2CC2)CCC1N (single isomer, unassigned) [Example 401, 5-amino-N-[5-(4-amino-5-methoxy-azepan-1-yl)-1-cyclopropyl-pyrazol-4-yl]-2-(2,6-difluorophenyl)thiazole-4-carboxamide] | 0.059 nM |
| COC1CCN(c2c(NC(=O)c3nc(-c4c(F)cccc4F)sc3N)cnn2C2CC2)CCC1N (single isomer, unassigned) [Example 402, 5-amino-N-[5-(4-amino-5-methoxy-azepan-1-yl)-1-cyclopropyl-pyrazol-4-yl]-2-(2,6-difluorophenyl)thiazole-4-carboxamide] | 0.126 nM |
| COC1CCN(c2c(NC(=O)c3nc(-c4c(F)cccc4F)sc3N)cnn2C2CC2)CCC1N (single isomer, unassigned) [Example 403, 5-amino-N-[5-(4-amino-5-methoxy-azepan-1-yl)-1-cyclopropyl-pyrazol-4-yl]-2-(2,6-difluorophenyl)thiazole-4-carboxamide] | 0.21 nM |
| COC1CCN(c2c(NC(=O)c3nc(-c4c(F)cccc4F)sc3N)cnn2C2CC2)CCC1N (single isomer, unassigned) [Example 404, 5-amino-N-[5-(4-amino-5-methoxy-azepan-1-yl)-1-cyclopropyl-pyrazol-4-yl]-2-(2,6-difluorophenyl)thiazole-4-carboxamide] | 0.036 nM |
| Nc1sc(-c2c(F)cccc2F)nc1C(=O)Nc1cnn(CC(F)F)c1N1CCCC[C@@H](N)C1 [Example 104, (R)-5-amino-N-(5-(3-aminoazepan-1-yl)-1-(2,2-difluoroethyl)-1H-pyrazol-4-yl)-2-(2,6-difluorophenyl)thiazole-4-carboxamide] | 0.091 nM |
| Nc1sc(-c2c(F)cccc2F)nc1C(=O)Nc1cnn(CC(F)F)c1N1CCCC(O)CC1 (centres unmarked) [Example 110, 5-Amino-N-(1-(2,2-difluoroethyl)-5-(4-hydroxyazepan-1-yl)-1H-pyrazol-4-yl)-2-(2,6-difluorophenyl)thiazole-4-carboxamide] | 0.166 nM |
| Cc1ccc(F)c(-c2nc(C(=O)Nc3cnn(CC(F)F)c3N3CCCC(O)CC3)c(N)s2)c1 (centres unmarked) [Example 111, 5-Amino-N-(1-(2,2-difluoroethyl)-5-(4-hydroxyazepan-1-yl)-1H-pyrazol-4-yl)-2-(2-fluoro-5-methylphenyl)thiazole-4-carboxamide] | 0.079 nM |
| Nc1sc(-c2cc(F)ccc2F)nc1C(=O)Nc1cnn(CC(F)F)c1N1CCCC(O)CC1 (centres unmarked) [Example 118, 5-Amino-N-(1-(2,2-difluoroethyl)-5-(4-hydroxyazepan-1-yl)-1H-pyrazol-4-yl)-2-(2,5-difluorophenyl)thiazole-4-carboxamide] | 0.292 nM |
